Experiments:
Type in all cases: functional, cell-based
[1] = tested on: MCF7; assay: Cytotoxicity against human MCF7 cells by MTT assay
[2] = tested on: DU-145; assay: Cytotoxicity against human DU145 cells by MTT assay
[3] = tested on: A549; assay: Cytotoxicity against human A549 cells by MTT assay
[4] = tested on: HeLa; assay: Cytotoxicity against human HeLa cells by MTT assay
[5] = Homo sapiens, MCF7, read-out: IC50
[6] = Homo sapiens, DU-145, read-out: IC50
[7] = Homo sapiens, A549, read-out: IC50
[8] = Homo sapiens, HeLa, read-out: IC50

Compound	IC50 [1, 5]	IC50 [2, 6]	IC50 [3, 7]	IC50 [4, 8]	IC50 ([1]; mcf7)	IC50 ([2]; du-145)	IC50 ([4]; hela)	IC50 ([3]; a549)
C[C@H]1[C@H](O)C[C@@H](CCO)N[C@H]1c1ccccc1	39.8 µM	41.6 µM	31.2 µM	31.5 µM	–	–	–	–
COc1ccc([C@H]2N[C@@H](CCO)C[C@H](O)[C@H]2C)cc1	13.7 µM	14.8 µM	17.6 µM	16.5 µM	–	–	–	–
COC(=O)C[C@H]1C[C@@H](O)[C@@H](C)[C@@H](c2ccc(F)cc2)N1	15.6 µM	51.7 µM	26.6 µM	19.8 µM	–	–	–	–
COc1cccc2c1C(=O)c1c(O)c3c(c(O)c1C2=O)C[C@@](O)(C(=O)CO)C[C@@H]3O[C@H]1C[C@H](N)[C@H](O)[C@H](C)O1 [DOXORUBICIN]	0.6 µM	–	0.6 µM	0.7 µM	–	–	–	–
COC(=O)C[C@H]1C[C@H](O)[C@H](C)[C@@H](c2ccccc2)N1	–	–	69.2 µM	41.1 µM	Not Active	Not Active	–	–
COC(=O)C[C@H]1C[C@H](O)[C@@H](C)[C@@H](c2ccc(C)cc2)N1	–	330 µM	97.6 µM	–	Not Active	–	Not Active	–
COC(=O)C[C@H]1C[C@@H](O)[C@@H](C)[C@@H](c2ccc(C(C)C)cc2)N1	–	110 µM	–	–	Not Active	–	Not Active	Not Active
COC(=O)C[C@H]1C[C@H](O)[C@@H](C)[C@@H](c2ccc(F)cc2)N1	18.2 µM	–	17.2 µM	17.4 µM	–	Not Active	–	–
COC(=O)C[C@H]1C[C@@H](O)[C@H](C)[C@@H](c2ccccc2)N1	35.6 µM	64.1 µM	34.6 µM	35.2 µM	–	–	–	–
COC(=O)C[C@H]1C[C@@H](O)[C@@H](C)[C@@H](c2ccc(OC)cc2)N1	10.4 µM	12.6 µM	23.5 µM	11.5 µM	–	–	–	–
COC(=O)C[C@@H]1C[C@@H](O)[C@H](C)[C@H](c2ccccc2)N1	5.4 µM	6.3 µM	8.5 µM	6.5 µM	–	–	–	–
COC(=O)C[C@H]1C[C@H](O)[C@@H](C)[C@@H](c2ccc(OC)cc2)N1	5.1 µM	6.5 µM	5.4 µM	5.3 µM	–	–	–	–
COC(=O)C[C@H]1C[C@@H](O)[C@@H](C)[C@@H](c2ccc(C)cc2)N1	12.2 µM	49.7 µM	29 µM	13.4 µM	–	–	–	–
COc1ccc([C@H]2N[C@@H](CC(=O)O)C[C@H](O)[C@H]2C)cc1	12.5 µM	15.7 µM	20.1 µM	19.9 µM	–	–	–	–
COC(=O)C[C@@H]1C[C@H](O)[C@H](C)[C@H](c2ccccc2)N1	12.3 µM	11.3 µM	20.5 µM	14.2 µM	–	–	–	–
COC(=O)C[C@H]1C[C@H](O)[C@@H](C)[C@@H](c2ccc(C(C)C)cc2)N1	17.1 µM	27.4 µM	–	18.2 µM	–	–	–	Not Active
C[C@H]1[C@H](O)C[C@@H](CC(=O)O)N[C@H]1c1ccccc1	23.1 µM	46.5 µM	28.9 µM	33.4 µM	–	–	–	–

— ChEMBL document CHEMBL3352547, “A concise diastereoselective approach to enantioenriched substituted piperidines and their in vitro cytotoxicity evaluation” (Bioorg Med Chem Lett, 2014)
